“Also recorded” adds a separate entry of the source.
How the values were obtained:
Assay type in all cases: cell-based
[1] = tested on: superoxide anions generated in rat aorta; test: Superoxide anion production in rat isolated aortic segments (lucigenin chemiluminescence, NADPH)
Protocol: Superoxide anion production in rat isolated aortic segments was determined using lucigenin chemiluminescence. Aortic rings were prepared as described above and then placed in ice-cold Krebs-(N-[2-Hydroxyethyl]piperazine-N′-[2-ethanesulfonic acid] (HEPES buffer) (composition (mM); NaCl 99.0, KCl 4.7, KH2PO4 1.0, MgSO4·7H2O 1.2, D-glucose 11.0, NaHCO3 25.0, CaCl2·2H2O 2.5, Na-HEPES 20.0). Aortic rings were pre-incubated for 45 minutes at 37° C. with a pH 7.4, in Krebs-HEPES buffer containing diethylthiocarbamic acid (DETCA, 10^−3 M) to inactivate superoxide dismutase and β-nicotinamide adenine dinucleotide phosphate (NADPH, 10^−4 M) as a substrate for NADPH oxidase and either 3′,4′-dihydroxyflavonol (10^−4 M) as a positive control, vehicle, 3-hydroxyflavone-3-hemiadipate, 3′,4′-dihydroxy-3-hemiadipate, 3-hydroxyflavone-3-phosphate (10^−8-10^−4 M). Background photon emission was measured for 12 cycles in a 96-well Optiplate containing 0.3 ml per well of Krebs-HEPES buffer together with lucigenin (5×10^−5 M) and vehicle or flavonoid (10^−8-10^−4 M). Each cycle was counted every one minute. After background reading was completed the incubated aortic rings were transferred to the appropriate wells and photon emission was recounted as described above. The tissue was then placed in a 65° C. oven for 48 hours to allow superoxide production to be normalised to dry tissue weight.
The effects of vehicle, 3′,4′-dihydroxyflavone-3-hemiadipate (21) (DiOHF3HA, 10^−8 M-10^−4 M) and DiOHF (10^−4 M) in the presence and absence of Butyryl cholinesterase (BuCHE), 100, 300 and 1000 U/L) on the level of superoxide anions generated in rat isolated aortic segments in the presence of NADPH was expressed as a percentage of control. The method used was as described above except for the addition of the butyryl cholinesterase.
The effect of vehicle, 3-hydroxyflavone-3-phosphate (10^−8 to 10^−4 M) in the presence or absence of phosphatase (1000 U/L) on the level of superoxide anions generated in rat aorta in the presence of NADPH expressed as a percentage of control was determined as described above for the 3′,4′-dihydroxyflavone-3-hemiadipate.

[2] = tested on: endothelium intact aortic rings; test: Effect on ACh relaxation of precontracted rat aortic rings; settings: substance alone
Protocol: After wash out and re-equilibration for 30 min, the aortic rings were then submaximally precontracted with PE and U46619, which were used to produce an active tension of 45-60% of the KPSS-induced maximum contraction. When investigating the effects of the flavonoids, flavonol, flavone-3-hemiadipate (F3HA), 3′, 4′-dihydroxyflavone, 3′,4′-dihydroxyflavonol, 3′,4′-dihydroxyflavone-3-hemiadipate (DiOHF3HA), and flavone-3-phosphate (F3P) on vasorelaxant responses, rings were incubated with one of the compounds for 20 mins before they were precontracted submaximally, followed by a cumulative-concentration response curve to ACh (100 nM-10 μM) or SNP ([…]). In experiments using F3P 1000U/L phosphatase was used in some experiments to cleave the phosphate. Some experiments were conducted in the presence and absence of butyryl cholinesterase (BuCHE, 1000 U/L) to cleave the adipate in DiOHF3HA and F3HA.

[3] = tested on: rat aorta precontracted with PE; test: Direct relaxation of PE/U46619-precontracted rat aortic rings
Protocol: Following testing of endothelial integrity, rings were repeatedly washed and re-equilibrated for 30 minutes before the addition of PE (10^−8−2×10^−7 M) and 9,11-dideoxy-9α, 11α-epoxymethano-prostaglandin F2α (U46619, 10^−9-10^−8 M) to produce an active force in the range of 40-60% of KPSS-induced contraction. The level of precontraction was matched between the various groups by adjusting the concentrations of PE and U46619. Cumulative concentration-response curves in the range 10^−8-10^−4 M were conducted for 3′,4′-dihydroxyflavonol, 3-hydroxyflavone-3-hemiadipate, 3′,4′-dihydroxy-3-hemiadipate, 3-hydroxyflavone-3-phosphate.
Experiments were conducted in the presence of an esterase, butyryl cholinesterase (BuCHE, 1000 U/L) for the hemiadipate derivates and a phosphatase 1000 U/L) in the case of the phosphate derivatives.
Following testing of endothelial integrity, rings were repeatedly washed and re-equilibrated for 30 minutes before the addition of PE (10^−8−2×10^−7 M) and 9,11-dideoxy-9α, 11α-epoxymethano-prostaglandin F2α (U46619, 10^−9-10^−7 M) to produce an active force in the range of 40-60% of KPSS-induced contraction. Cumulative concentration-response curves in the range 10^−7-10^−4 M were conducted for vehicle, 3′-hydroxyflavonol, F3HA, DiOHF3HA, F3P. Experiments were conducted in the presence and absence of 1000 U/L BuCHE to cleave the adipate in F3HA and DiOHF3HA. In experiments using F3P 1000 U/L phosphatase was used in some experiments to cleave the phosphate.

Compound: O=C(O)CCCCC(=O)Oc1c(-c2ccc(O)c(O)c2)oc2ccccc2c1=O [DiOHF3HA, 3′,4′-dihydroxyflavone-3-hemiadipate]
- effect on superoxide generation ([1]; in the presence of cleaving enzyme (BuCHE for hemiadipates, phosphatase for phosphate, 1000 U/L)): concentration dependent inhibition of superoxide levels; also recorded: concentration dependent inhibitory effect; also recorded: inhibit superoxide levels produced by rat aorta
- effect on superoxide generation ([1]; substance alone, no added esterase/phosphatase, up to 10^−4 M, NADPH): no inhibitory effect on superoxide generation; also recorded: no antioxidant or vascular activity
- effect on relaxant response to ACh [2]: no effect on relaxant responses to ACh or SNP
- direct relaxing effect on precontracted vessels ([3]; DiOHF3HA plus 1000 U/L BuCHE): marked effect on vascular tone; also recorded: direct relaxation of pre-contracted rat aortic rings only in the presence of the esterase; also recorded: cause direct relaxation of rat aortic rings
- direct relaxing effect on precontracted vessels ([3]; substance alone): no effect on PE precontracted vessels

— patent US8017649B2, “Flavonoid compounds and uses thereof” (Howard Florey Institute of Experimental Physiology and …, priority 2005, dated 2011)
